Measured values published in PubChem BioAssay (NCI).
“And” between values parts separate entries of the source, which are not always exact repeats. Equal entries are not always repeated.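 These data come from cells grown in 96-well plates and exposed to compound for 48 hours at five concentrations. The concentration for 50% growth inhibition is given as GI50. TGI marks complete inhibition of growth.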

System: MDA-MB-468 breast
Assay: NCI tumour cell line growth inhibition, 48 h

Row | Structure (SMILES) | GI50 | TGI
1 | COc1ccc2nc3ccccc3c(NCc3ccc(F)cc3)c2c1 | 1070 nM | 2930 nM
2 | O=c1oc2ccc(-c3ccc(F)cc3F)cc2c(=O)n1-c1cccc(C(F)(F)F)c1 | 2280 nM and 1130 nM | 5830 nM and 3430 nM
3 | O=C(Cc1ccc(F)c(Cl)c1)Nc1cc(C2(C(F)(F)F)CC2)nn1CC1CCCCC1 | 2680 nM | 9280 nM
4 | CCc1cc(OC(=O)N2CCC(N3CCCCC3)CC2)ccc1Nc1cc(-c2ccc(-n3cccn3)cc2)[nH]n1 | 1740 nM | 3650 nM
5 | CCN1CCN(c2cc(C)c3cc(NC(=O)c4ccc(OC)c(OC)c4)ccc3n2)CC1 | 17700 nM | > 100000 nM
6 | C[C@@H](Nc1c(C#N)cnc2ccc(-c3cnc(Cl)c(NS(C)(=O)=O)c3)cc12)c1ccccc1 | 74.5 nM | 1230 nM
7 | C[C@@H]1C[C@@H]([C@@H](CC2CC(=O)NC(=O)C2)OC(=O)CC(=O)c2ccccc2)C(=O)[C@@H](C)C1 | 1170 nM | > 100000 nM
8 | CCOC(=O)N[C@H]1CCc2cc(OC)c(OC)c(OC)c2-c2ccc(SC)c(=O)cc21 | < 10 nM | > 21300 nM
9 | COc1ccc(-c2nnc3n(C)c(=O)c4ccccc4n23)cc1N | 2330 nM | > 100000 nM
10 | C[n+]1c(/C=C/c2c(O)ccc3ccccc23)ccc2ccccc21 | 1460 nM | 7080 nM
11 | CN(C)CC[C@H](CSc1ccccc1)Nc1ccc(S(=O)(=O)NC(=O)c2ccc(N3CCN(Cc4ccccc4-c4ccc(Cl)cc4)CC3)cc2)cc1[N+](=O)[O-] | 1380 nM | 3650 nM
12 | COC(=O)c1c2c(c(C)[n+]([O-])c1C)C(=O)C=C(NCc1ccc(F)cc1)C2=O | 284 nM | 978 nM
13 | N=c1c2c(-c3ccccc3)c(-c3ccccc3)n(Cc3ccccc3)c2ncn1C1CCC(O)CC1 (centres undefined) | 631 nM | 3230 nM
14 | NC(=O)c1c(NC(=O)c2ccccc2)sc2c1CCC(=O)C2 | 2460 nM | 6590 nM
15 | Cc1nnc(Nc2ccc(NC(=O)Nc3ccc(Cl)cc3)cc2)c2ccccc12 | 2840 nM | 7430 nM
16 | O=[N+]([O-])c1ccc(-c2nnc(SCc3ccc(O)c4ncccc34)n2-c2ccccc2)cc1 | 577 nM | 4460 nM
17 | CC(C)(/C=C(\C#N)C(=O)N1CCC[C@@H](n2nc(-c3ccc(Oc4ccccc4)cc3F)c3c(N)ncnc32)C1)N1CCN(C2COC2)CC1 | 3630 nM | 14900 nM
18 | COc1cc(N=Nc2ccc(O)c3ncccc23)c2ncccc2c1 | 2270 nM | 6640 nM
19 | Cc1nc(Nc2cccnc2)sc1C(=O)/C=C/c1ccc(F)cc1 | 3220 nM | 11100 nM
20 | Nc1ncn([C@@H]2O[C@H](CO)[C@@H](O)[C@H]2O)c(=O)n1 | 1030 nM | 5340 nM
21 | O=C(NC[C@H](O)CN1CCc2ccccc2C1)c1cc(NC2COC2)ncn1 | 4250 nM | 24500 nM
22 | CC(NCCC(c1ccccc1)c1ccccc1)c1ccccc1 (centres undefined) | 1300 nM | 2640 nM
